Results reported in patent publication US7056907B2, “Mandelic acid derivatives and their use as thrombin inhibitors” (AstraZeneca AB, priority 2001, dated 2006).

Experiments:
[1] = test system: pooled normal human citrated plasma; assay: Test D: Determination of Activated Partial Thromboplastin Time (APTT); assay type: biochemical; settings: read-out: IC50 APTT (concentration of inhibitor in human plasma that doubles the Activated Partial Thromboplastin Time)
Method: Determination of Activated Partial Thromboplastin Time (APTT)
APTT is determined in pooled normal human citrated plasma with the reagent PTT Automated 5 manufactured by Stago. The inhibitors are added to the plasma (10 μL inhibitor solution to 90 μL plasma) and incubated with the APTT reagent for 3 minutes followed by the addition of 100 μL of calcium chloride solution (0.025 M) and APTT is determined by use of the coagulation analyser KC10 (Amelung) according to the instructions of the reagent producer.
(§1) The clotting time is expressed as absolute values (seconds) as well as the ratio of APTT without inhibitor (APTT0) to APTT with inhibitor (APTTi). The latter ratios (range 1–0) are plotted against the concentration of inhibitor (log transformed) and fitted to sigmoidal dose-response curves according to the equation y=a/[1+(x/IC50)^s] where: a=maximum range, i.e. 1; s=slope of the dose-response curve; and IC50=the concentration of inhibitor that doubles the clotting time. The calculations are processed on a PC using the software program GraFit Version 3, setting equation equal to: Start at 0, define end=1 (Erithacus Software, Robin Leatherbarrow, Imperial College of Science, London, UK). IC50APTT is defined as the concentration of inhibitor in human plasma that doubles the Activated Partial Thromboplastin Time. Test E Determination of Thrombin Time ex vivo

[2] = Test G: Determination of in vitro Stability, rat liver microsomes; assay type: in vitro ADME, Sprague-Dawley rats; settings: liver microsomes from rats, 37° C., up to 60 min
Method: (§2) Plasma clearance is estimated in male Sprague Dawley rats. The compound is dissolved in water and administered as a subcutaneous bolus injection at a dose of 4 μmol/kg. Blood samples are collected at frequent intervals up to 5 hours after drug administration. Blood samples are centrifuged and plasma is separated from the blood cells and transferred to vials containing citrate (10% final concentration). 50 μL of plasma samples are precipitated with 100 μL of cold acetonitrile. The samples are centrifuged for 10 minutes at 4000 rpm. 75 μL of the supernatant is diluted with 75 μL of 0.2% formic acid. 10 μL volumes of the resulting solutions are analysed by LC-MS/MS and the concentrations of thrombin inhibitor are determined using standard curves. The area under the plasma concentration-time profile is estimated using the log/linear trapezoidal rule and extrapolated to infinite time. Plasma clearance (CL) of the compound is then determined as CL=Dose/AUC The values are reported in mL/min/kg. Test G Determination of in vitro Stability
(§3) Liver microsomes are prepared from Sprague-Dawley rats and human liver samples according to internal SOPs. […] The concentration of compound remaining (FINAL CONC) in the 60 min. sample is determined by means of LCMS using a sample collected at zero time as reference (START CONC). The % of degraded thrombin inhibitor is calculated as: […]

[3] = Test G: Determination of in vitro Stability, human liver microsomes; assay type: in vitro ADME; settings: liver microsomes from humans, 37° C., up to 60 min
Method: as §2, §3

[4] = Test E: Determination of Thrombin Time ex vivo (plasma concentration of thrombin inhibitor after oral or parenteral administration); assay type: in vivo, rat; settings: conscious rats, plasma analysed by LC-MS/MS
Excerpt: as §1
The inhibition of thrombin after oral or parenteral administration of the compounds of the invention, dissolved in ethanol:SolutolK:water (5:5:90), is examined in conscious rats which, one or two days prior to the experiment, are equipped with a catheter for blood sampling from the carotid artery. […]
50 μL of plasma samples are precipitated with 100 μL of cold acetonitrile. […] 10 μL volumes of the resulting solutions are analysed by LC-MS/MS and the concentrations of thrombin inhibitor are determined using standard curves.

N=C(N)c1cc(F)c(CNC(=O)[C@@H]2CCN2C(=O)[C@H](O)c2cc(Cl)cc(OC(F)F)c2)c(F)c1 [Example 1, Ph(3-Cl)(5-OCHF2)—(R)CH(OH)C(O)—(S)Aze-Pab(2,6-diF)]
IC50 [1]: < 1000 nM

CO/N=C(\N)c1cc(F)c(CNC(=O)[C@@H]2CCN2C(=O)[C@H](O)c2cc(Cl)cc(OC(F)F)c2)c(F)c1 [Example 2, Ph(3-Cl)(5-OCHF2)—(R)CH(OH)C(O)—(S)Aze-Pab(2,6-diF)(OMe)]
conversion to the corresponding active inhibitor (free amidine) in liver microsomes [2]: converted to the corresponding active inhibitor (free amidine)
conversion to the corresponding active inhibitor (free amidine) in liver microsomes [3]: converted to the corresponding active inhibitor (free amidine)
oral and/or parenteral bioavailability as the corresponding active inhibitor (free amidine) [4]: exhibit oral and/or parenteral bioavailability in the rat as the corresponding active inhibitor (free amidine)
